Inconclusive results and toxic doses are left out. Rule as the data show it: active = T/C of 150% or more; inactive = T/C below 125%.
Test system: L1210 leukemia ip in BDF1 mice, survival T/C
Test: NCI In Vivo Anticancer Drug Screen. Data for tumor model L1210 Leukemia (intraperitoneal) in B6D2F1 (BDF1) mice
Conditions: endpoint: mean survival time, higher = longer survival
Method in brief: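 Transplantable tumor model; survival measured in treated vs vehicle control mice. Value = treated/control.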

[1] = dose: 100.0 mg/kg/injection, schedule: Q01DX001 (ip), vehicle: saline with Tween-80
[2] = dose: 200.0 mg/kg/injection, schedule: Q01DX001 (ip), vehicle: saline with Tween-80
[3] = dose: 400.0 mg/kg/injection, schedule: Q01DX001 (ip), vehicle: saline with Tween-80
[4] = dose: 100.0 mg/kg/injection, schedule: Q01DX009 (ip), vehicle: Klucel (hydroxypropylcellulose) (HPC)
[5] = dose: 100.0 mg/kg/injection, schedule: Q04DX003 (ip), vehicle: Klucel (hydroxypropylcellulose) (HPC)
[6] = dose: 200.0 mg/kg/injection, schedule: Q01DX009 (ip), vehicle: Klucel (hydroxypropylcellulose) (HPC)
[7] = dose: 200.0 mg/kg/injection, schedule: Q04DX003 (ip), vehicle: Klucel (hydroxypropylcellulose) (HPC)
[8] = dose: 400.0 mg/kg/injection, schedule: Q04DX003 (ip), vehicle: Klucel (hydroxypropylcellulose) (HPC)
[9] = dose: 50.0 mg/kg/injection, schedule: Q01DX009 (ip), vehicle: Klucel (hydroxypropylcellulose) (HPC)
[10] = dose: 100.0 mg/kg/injection, schedule: Q04DX003 (ip), vehicle: saline with Tween-80
[11] = dose: 200.0 mg/kg/injection, schedule: Q04DX003 (ip), vehicle: saline with Tween-80
[12] = dose: 400.0 mg/kg/injection, schedule: Q04DX003 (ip), vehicle: saline with Tween-80
[13] = dose: 100.0 mg/kg/injection, schedule: Q01DX009 (ip), vehicle: saline with Tween-80
[14] = dose: 200.0 mg/kg/injection, schedule: Q01DX009 (ip), vehicle: saline with Tween-80
[15] = dose: 100.0 mg/kg/injection, schedule: Q04DX002 (ip), vehicle: Klucel (hydroxypropylcellulose) (HPC)
[16] = dose: 200.0 mg/kg/injection, schedule: Q04DX002 (ip), vehicle: Klucel (hydroxypropylcellulose) (HPC)
[17] = dose: 400.0 mg/kg/injection, schedule: Q04DX002 (ip), vehicle: Klucel (hydroxypropylcellulose) (HPC)
[18] = dose: 50.0 mg/kg/injection, schedule: Q01DX001 (ip), vehicle: carboxymethylcellulose (CMC)
[19] = dose: 100.0 mg/kg/injection, schedule: Q01DX001 (ip), vehicle: carboxymethylcellulose (CMC)

Measured: T/C

CCCCCCCCCCc1ccc(CCCCCCCCCC)cc1
inactive: [1] 94 % of control | [2] 92 % of control | [3] 99 % of control

CCCCCCCCCCCCCCCCN(C(=S)c1ccccc1)c1ccccc1
inactive: [4] 89 % of control | [5] 104 % of control | [6] 90 % of control | [7] 94 % of control | dose: 400.0 mg/kg/injection, schedule: Q01DX009 (ip), vehicle: Klucel (hydroxypropylcellulose) (HPC) 87 % of control | [8] 96 % of control

O=[N+]([O-])c1ccc([N+](=O)[O-])c(Cl)c1
inactive: [9] 101 % of control | [4] 95 % of control | [10] 97 % of control | [11] 86 % of control

CC(=O)Nc1cc(Cl)ccc1SC1OC(COC(C)=O)C(OC(C)=O)C(OC(C)=O)C1OC(C)=O (stereo not given)
inactive: dose: 100.0 mg/kg/injection, schedule: Q01DX001 (ip), vehicle: saline 93 % of control | dose: 200.0 mg/kg/injection, schedule: Q01DX001 (ip), vehicle: saline 95 % of control | dose: 400.0 mg/kg/injection, schedule: Q01DX001 (ip), vehicle: saline 87 % of control

C[Si](C)(C)Br
inactive: dose: 100.0 mg/kg/injection, schedule: Q01DX009 (ip), vehicle: saline 96 % of control | dose: 200.0 mg/kg/injection, schedule: Q01DX009 (ip), vehicle: saline 87 % of control | dose: 400.0 mg/kg/injection, schedule: Q01DX009 (ip), vehicle: saline 87 % of control

Cc1ccc(S(=O)(=O)NC(=O)C(C)Br)cc1 (stereo not given)
inactive: dose: 150.0 mg/kg/injection, schedule: Q01DX001 (ip), vehicle: steriod suspending solution 95 % of control | dose: 300.0 mg/kg/injection, schedule: Q01DX001 (ip), vehicle: steriod suspending solution 95 % of control

CC(C)c1nc(-c2ccccc2)c(-c2ccccc2)[nH]1
inactive: [10] 93 % of control | [11] 98 % of control | [12] 93 % of control

Cc1cc(C)n(/N=C/c2cccc(Cl)c2)c(=O)c1C#N
inactive: [13] 88 % of control | [10] 95 % of control | [14] 87 % of control | [11] 90 % of control | dose: 400.0 mg/kg/injection, schedule: Q01DX009 (ip), vehicle: saline with Tween-80 92 % of control | [12] 90 % of control

FC(F)(F)C(F)(F)c1nc2nc(Cl)c(Cl)nc2[nH]1
inactive: dose: 50.0 mg/kg/injection, schedule: Q01DX009 (ip), vehicle: other 106 % of control | dose: 100.0 mg/kg/injection, schedule: Q01DX009 (ip), vehicle: other 92 % of control | dose: 100.0 mg/kg/injection, schedule: Q04DX003 (ip), vehicle: other 120 % of control | dose: 132.0 mg/kg/injection, schedule: Q04DX003 (ip), vehicle: other 94 % of control | dose: 200.0 mg/kg/injection, schedule: Q04DX003 (ip), vehicle: other 114 % of control

O=C1/C(=C/c2ccccc2)Cc2cccc(O)c21
inactive: dose: 100.0 mg/kg/injection, schedule: Q01DX009 (ip), vehicle: saline sonified 100 % of control | dose: 200.0 mg/kg/injection, schedule: Q01DX009 (ip), vehicle: saline sonified 107 % of control | dose: 400.0 mg/kg/injection, schedule: Q01DX009 (ip), vehicle: saline sonified 102 % of control

O=C(O)C1C2C=CC(CC2)C1C(=O)O (stereo not given)
inactive: dose: 100.0 mg/kg/injection, schedule: Q04DX003 (ip), vehicle: saline 96 % of control | dose: 200.0 mg/kg/injection, schedule: Q04DX003 (ip), vehicle: saline 90 % of control | dose: 400.0 mg/kg/injection, schedule: Q04DX003 (ip), vehicle: saline 94 % of control

COc1ccc(C(=O)c2ccccc2)cc1
inactive: [15] 115 % of control | [16] 86 % of control | [17] 86 % of control

Cc1cc(N(CCCl)CCCl)ccc1C=Nc1ccc(-c2csc(-c3ccccc3)n2)cc1
inactive: [18] 103 % of control | [19] 94 % of control | dose: 200.0 mg/kg/injection, schedule: Q01DX001 (ip), vehicle: carboxymethylcellulose (CMC) 97 % of control | dose: 400.0 mg/kg/injection, schedule: Q01DX001 (ip), vehicle: carboxymethylcellulose (CMC) 100 % of control

CCOC(=O)c1c2c3c(c(Br)cc(C)c3[nH]c1=O)C(=O)c1ccccc1-2
inactive: dose: 50.0 mg/kg/injection, schedule: Q01DX009 (ip), vehicle: saline with Tween-80 97 % of control | [13] 101 % of control | [14] 101 % of control

CCCCC#CC(=O)OCCCC
inactive: dose: 100.0 mg/kg/injection, schedule: Q04DX002 (ip), vehicle: saline 94 % of control | dose: 200.0 mg/kg/injection, schedule: Q04DX002 (ip), vehicle: saline 97 % of control | dose: 400.0 mg/kg/injection, schedule: Q04DX002 (ip), vehicle: saline 102 % of control

CCCCCCCCC(CCc1ccccc1)CCc1ccccc1
inactive: [1] 93 % of control | [2] 93 % of control | [3] 96 % of control

O=c1[nH]c2cnccc2c(=O)n1OS(=O)(=O)c1ccccc1
inactive: [9] 90 % of control | [4] 90 % of control | [6] 97 % of control

C/C(=N/N(C)C)c1ccccn1
inactive: [13] 104 % of control | [10] 91 % of control | [14] 95 % of control | [11] 95 % of control | [12] 106 % of control

CCN(CC)CCn1ccnc1C
inactive: dose: 50.0 mg/kg/injection, schedule: Q01DX005 (ip), vehicle: saline 109 % of control | dose: 100.0 mg/kg/injection, schedule: Q01DX005 (ip), vehicle: saline 104 % of control | dose: 200.0 mg/kg/injection, schedule: Q01DX005 (ip), vehicle: saline 104 % of control

CC(O)C[As](=O)(O)c1ccccc1 (stereo not given)
inactive: dose: 12.5 mg/kg/injection, schedule: Q04DX002 (ip), vehicle: saline 103 % of control | dose: 25.0 mg/kg/injection, schedule: Q04DX002 (ip), vehicle: saline 100 % of control

CCCCCCCCCCCCCCCCCC(=O)Nc1ccc(OC(=O)NC)cc1
inactive: [4] 93 % of control | [6] 88 % of control

Cc1ccc(S(=O)(=O)OC2CCC(C(C)(C)C)C(Cl)C2)cc1 (stereo not given)
inactive: dose: 100.0 mg/kg/injection, schedule: Q01DX001 (ip), vehicle: Klucel (hydroxypropylcellulose) (HPC) 103 % of control | dose: 200.0 mg/kg/injection, schedule: Q01DX001 (ip), vehicle: Klucel (hydroxypropylcellulose) (HPC) 87 % of control | dose: 400.0 mg/kg/injection, schedule: Q01DX001 (ip), vehicle: Klucel (hydroxypropylcellulose) (HPC) 94 % of control

O=NN(CCCl)C(=O)Nc1ncc([N+](=O)[O-])s1
inactive: dose: 8.0 mg/kg/injection, schedule: Q01DX001 (ip), vehicle: other 105 % of control | dose: 16.0 mg/kg/injection, schedule: Q01DX001 (ip), vehicle: other 105 % of control | dose: 31.0 mg/kg/injection, schedule: Q01DX001 (ip), vehicle: other 110 % of control | dose: 62.0 mg/kg/injection, schedule: Q01DX001 (ip), vehicle: other 109 % of control | dose: 125.0 mg/kg/injection, schedule: Q01DX001 (ip), vehicle: other 116 % of control

C/C(=C/c1ccccc1)OC(=O)c1ccccc1
inactive: [18] 87 % of control | [19] 86 % of control

CN(C)C(=S)Oc1ccc(Cl)cc1S(=O)(=O)F
inactive: [5] 106 % of control | [7] 101 % of control | [8] 102 % of control

CCn1c(C)[n+](CC)c2ccc(C(C)=O)cc21
inactive: [1] 97 % of control

Cc1ccc(NC(=O)N(Cc2ccccc2)Cc2ccccc2)c([N+](=O)[O-])c1
inactive: [9] 87 % of control | [4] 123 % of control | [5] 95 % of control | [6] 90 % of control | [7] 101 % of control | [8] 99 % of control

CC(NC(=O)NCCCl)c1cccc([N+](=O)[O-])c1 (stereo not given)
inactive: [15] 94 % of control | [16] 105 % of control | [17] 119 % of control

From PubChem BioAssay AID248 (DTP/NCI, 2004)
